Measured values as given in patent US20090029366A1 (priority 2007, published 2009).

Tests used:
human HCN1 = target: T1, human HCN1 (Homo sapiens, UniProt O60741); type: cell-based
T1 construct: expressed in transfected cells; host or cells: HEK-293H
T1 sequence (O60741 1-890): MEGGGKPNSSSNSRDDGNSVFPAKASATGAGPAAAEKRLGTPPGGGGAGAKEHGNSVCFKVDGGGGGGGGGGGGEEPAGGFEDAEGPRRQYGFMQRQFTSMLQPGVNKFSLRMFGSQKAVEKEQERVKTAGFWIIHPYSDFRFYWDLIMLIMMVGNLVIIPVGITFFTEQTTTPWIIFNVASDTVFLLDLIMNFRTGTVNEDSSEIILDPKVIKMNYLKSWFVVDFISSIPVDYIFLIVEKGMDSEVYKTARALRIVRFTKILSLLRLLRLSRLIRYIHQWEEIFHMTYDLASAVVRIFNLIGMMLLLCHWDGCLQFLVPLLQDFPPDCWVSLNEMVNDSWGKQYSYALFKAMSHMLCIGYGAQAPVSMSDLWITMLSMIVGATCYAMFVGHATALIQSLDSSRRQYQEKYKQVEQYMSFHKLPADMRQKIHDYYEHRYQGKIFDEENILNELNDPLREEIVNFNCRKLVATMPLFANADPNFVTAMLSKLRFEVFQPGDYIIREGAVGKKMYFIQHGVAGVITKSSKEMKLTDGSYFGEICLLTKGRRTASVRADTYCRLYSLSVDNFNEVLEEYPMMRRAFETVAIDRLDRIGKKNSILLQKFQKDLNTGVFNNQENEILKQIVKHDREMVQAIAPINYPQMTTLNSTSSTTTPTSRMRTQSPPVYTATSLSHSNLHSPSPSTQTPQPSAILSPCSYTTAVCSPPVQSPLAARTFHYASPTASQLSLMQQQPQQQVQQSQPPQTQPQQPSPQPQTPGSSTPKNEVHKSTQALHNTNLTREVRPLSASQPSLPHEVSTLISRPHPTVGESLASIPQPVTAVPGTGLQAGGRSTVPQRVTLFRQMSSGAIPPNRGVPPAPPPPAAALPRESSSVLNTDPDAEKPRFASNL

human HCN4 channel = target: T2, human HCN4 channel (Homo sapiens, UniProt Q9Y3Q4); test: MPSD FLIPR 384 hyperpolarization assay, HCN4 (CHO-K1 cells); type: cell-based; conditions: 50 μM ZD7288
T2 construct: expressed in transfected cells; host or cells: CHO-K1
T2 sequence (Q9Y3Q4 1-1203): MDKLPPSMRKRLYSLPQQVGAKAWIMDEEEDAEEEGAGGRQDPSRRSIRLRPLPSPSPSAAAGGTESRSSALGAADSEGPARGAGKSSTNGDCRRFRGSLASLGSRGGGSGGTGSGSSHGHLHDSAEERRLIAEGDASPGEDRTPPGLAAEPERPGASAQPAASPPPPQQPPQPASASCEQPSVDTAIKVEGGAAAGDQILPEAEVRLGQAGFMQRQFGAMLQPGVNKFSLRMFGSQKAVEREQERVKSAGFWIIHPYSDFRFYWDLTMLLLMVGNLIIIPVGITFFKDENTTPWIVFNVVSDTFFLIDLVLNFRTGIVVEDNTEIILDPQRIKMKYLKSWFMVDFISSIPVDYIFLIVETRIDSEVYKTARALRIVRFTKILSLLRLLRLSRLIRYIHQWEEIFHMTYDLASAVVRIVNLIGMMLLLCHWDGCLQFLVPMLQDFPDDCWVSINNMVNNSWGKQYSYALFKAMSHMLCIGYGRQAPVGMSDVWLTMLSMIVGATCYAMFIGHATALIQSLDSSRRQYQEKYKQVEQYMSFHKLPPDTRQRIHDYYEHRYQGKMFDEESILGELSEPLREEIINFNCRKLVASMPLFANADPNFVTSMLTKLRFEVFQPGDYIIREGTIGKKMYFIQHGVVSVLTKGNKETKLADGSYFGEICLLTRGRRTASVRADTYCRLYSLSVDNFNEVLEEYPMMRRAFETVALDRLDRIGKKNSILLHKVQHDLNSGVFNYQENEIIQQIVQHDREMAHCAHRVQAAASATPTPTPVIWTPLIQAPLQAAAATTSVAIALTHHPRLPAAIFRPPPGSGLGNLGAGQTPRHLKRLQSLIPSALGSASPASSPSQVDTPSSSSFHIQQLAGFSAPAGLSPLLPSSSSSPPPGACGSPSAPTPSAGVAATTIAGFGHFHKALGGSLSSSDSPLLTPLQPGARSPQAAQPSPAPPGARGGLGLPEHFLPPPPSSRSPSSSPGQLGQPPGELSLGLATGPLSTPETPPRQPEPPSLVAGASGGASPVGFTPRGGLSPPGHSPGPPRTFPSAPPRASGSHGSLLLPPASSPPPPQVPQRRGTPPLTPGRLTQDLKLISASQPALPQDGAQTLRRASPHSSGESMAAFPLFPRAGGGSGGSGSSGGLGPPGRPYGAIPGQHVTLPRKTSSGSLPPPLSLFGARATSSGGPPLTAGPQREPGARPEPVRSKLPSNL
Procedure: CHO-K1 cells stably expressing a human HCN4 channel were plated as described in Example 3 above. Using a FLIPR®^96 assay, control cells were incubated in 30 μl/well HBSS (Gibco catalog 14025-092 containing NaCl, 137.93; KCl, 5.33; KH2PO4, 0.44; NaHCO3, 4.17; Na2HPO4, 0.34; CaCl2, 1.26; MgCl2, 0.49; MgSO4, 0.41; D-Glucose 5.56). The HBSS was supplemented with MPSD (1 vial/0.5 L). The saline for test cells additionally included 30 μM of the channel inhibitor ZD7288 dissolved in <1.0% DMSO. After 15-30 minutes incubation, background fluorescence was recorded on FLIPR and the membrane hyperpolarization induced by the addition of 200 μl sodium/potassium diluent solution (140 Choline-Cl, 1.0 mM CaCl2, 1.0 mM CaCl2, 10 mM HEPES, 5.5 mM D-glucose, pH 7.3 with TRIS-OH), supplemented with MPSD (1 vial/0.5 L) was recorded on FLIPR.
The FLIPR®^384 well plate was prepared similarly to the FLIPR®^96 well plate except that the amounts of HBSS (optionally, HBSS was supplemented with about 25 to 50 mM of KCl to further enhance assay window) and the sodium/potassium diluent solution were adjusted to keep the dilution ratio of these solutions between about 1:10-1:30, respectively. Additionally, 50 μM ZD7288 was added to the saline containing test cells. […] In addition, less than about 0.02% false positives or false negatives were observed (covariance 11.03 and 12.05, data not shown).

CCN(c1ccccc1)c1cc(=NC)n(C)c(C)n1.Cl [ZD7288]
reversal of hyperpolarization induced by low sodium/potassium diluent (human HCN1): reversed
blockade of hyperpolarization of HCN4 channels (human HCN4 channel): effectively blocked hyperpolarization
